According to US9115127B2 (AMGEN INC., priority 2010, dated 2015):
Like-named read-outs stand apart in the source and are kept apart here.

Biological target: T1, wild-type human ALK (cytoplasmic domain, amino acids 1058-1620, N-terminal GST fusion) (Homo sapiens, UniProt Q9UM73)
T1 construct: The cytoplasmic domain (amino acids 1058-1620) of wild-type human ALK; GST (N); made in house; host or cells: SF9 insect cells
Experiment: ALK Inhibition in Enzyme Assay (Lance TR-FRET kinase assay)
Type: biochemical
In short: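 Purified enzyme phosphorylated a biotinylated peptide substrate for 90 minutes at room temperature. Reactions were stopped with 20 mM EDTA in 50 mM Tris (pH 7.5), 100 mM NaCl, 0.05% BSA, 0.1% Tween-20. Phosphopeptide was detected by TR-FRET with SA-APC and Eu-W1024 anti-phosphotyrosine antibody PT66, excitation 320 nm.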

T1 sequence (Q9UM73 1058-1620): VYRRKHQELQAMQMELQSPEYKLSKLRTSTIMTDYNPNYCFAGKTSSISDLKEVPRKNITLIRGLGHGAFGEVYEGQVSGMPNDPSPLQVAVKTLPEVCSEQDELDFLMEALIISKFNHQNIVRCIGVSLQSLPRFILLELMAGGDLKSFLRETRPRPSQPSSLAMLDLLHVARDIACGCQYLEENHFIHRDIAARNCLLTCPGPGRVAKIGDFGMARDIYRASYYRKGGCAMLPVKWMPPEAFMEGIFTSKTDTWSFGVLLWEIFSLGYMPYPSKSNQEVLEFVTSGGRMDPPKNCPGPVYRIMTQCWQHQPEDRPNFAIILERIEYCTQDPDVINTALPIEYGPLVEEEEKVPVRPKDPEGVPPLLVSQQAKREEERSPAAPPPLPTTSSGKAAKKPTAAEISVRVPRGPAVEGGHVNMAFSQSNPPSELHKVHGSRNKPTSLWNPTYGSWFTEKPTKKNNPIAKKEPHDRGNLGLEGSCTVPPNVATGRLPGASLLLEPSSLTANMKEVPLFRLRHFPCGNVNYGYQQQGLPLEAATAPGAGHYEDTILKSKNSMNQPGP

Row | Compound | IC50 [µM] | IC50 (2 nM enzyme, ATP 40 μM (Km apparent), 90 minutes at room temperature, mean of three replicates) [µM]
1 | C=CCNS(=O)(=O)c1cccc(C(=O)/N=c2\[nH]c3cnc(OCCN4CCCCC4)cc3n2[C@H]2CC[C@H](C(N)=O)CC2)c1 [Example 244, (E)-3-(N-Allylsulfamoyl)-N-(1-(trans-4-carbamoylcyclohexyl)-6-(2-(piperidin-1-yl)ethoxy)-1H-imidazo[4,5-c]pyridin-2(3H)-ylidene)benzamide] | 0.05 to 0.1 | 
2 | C=CCNS(=O)(=O)c1cccc(C(=O)/N=c2\[nH]c3cnc(OCCN4CCCCC4)cc3n2C2CCC(C(=O)NC)CC2)c1 [Example 245, (E)-3-(N-Allylsulfamoyl)-N-(1-((1R,4R)-4-(methylcarbamoyl)cyclohexyl)-6-(2-(piperidin-1-yl)ethoxy)-1H-imidazo[4,5-c]pyridin-2(3H)-ylidene)benzamide] |  | 0.05 to 0.1
3 | CNC(=O)[C@H]1CC[C@H](n2/c(=N/C(=O)c3ccc(F)cc3)[nH]c3cnc(OCCN4CCCCC4)cc32)CC1 [Example 246, (E)-4-Fluoro-N-(1-(trans-4-(methylcarbamoyl)cyclohexyl)-6-(2-(piperidin-1-yl)ethoxy)-1H-imidazo[4,5-c]pyridin-2(3H)-ylidene)benzamide] | 0.1 to 1 | 
4 | NC(=O)[C@H]1CC[C@H](n2/c(=N/C(=O)c3cc(F)cc(F)c3)[nH]c3cnc(OCCN4CCCCC4)cc32)CC1 [Example 247, (E)-N-(1-(trans-4-Carbamoylcyclohexyl)-6-(2-(piperidin-1-yl)ethoxy)-1H-imidazo[4,5-c]pyridin-2(3H)-ylidene)-3,5-difluorobenzamide] | 1 to 5 | 
5 | NC(=O)[C@H]1CC[C@H](n2/c(=N/C(=O)c3ccc(F)cc3)[nH]c3cnc(OCCN4CCCCC4)cc32)CC1 [Example 248, (E)-N-(1-(trans-4-Carbamoylcyclohexyl)-6-(2-(piperidin-1-yl)ethoxy)-1H-imidazo[4,5-c]pyridin-2(3H)-ylidene)-4-fluorobenzamide] | 1 to 5 | 
6 | CNC(=O)[C@H]1CC[C@H](n2/c(=N/C(=O)c3cc(F)cc(F)c3)[nH]c3cnc(OCCN4CCCCC4)cc32)CC1 [Example 249, (E)-3,5-Difluoro-N-(1-(trans-4-(methylcarbamoyl)cyclohexyl)-6-(2-(piperidin-1-yl)ethoxy)-1H-imidazo[4,5-c]pyridin-2(3H)-ylidene)benzamide] | 1 to 5 | 
7 | N#C[C@]1(c2cccc(Br)c2)C[C@@H](n2/c(=N/C(=O)c3ccc(F)cc3)[nH]c3cnc(OCCN4CCCCC4)cc32)C1 [Example 250, (E)-N-(1-(trans-3-(3-Bromophenyl)-3-cyanocyclobutyl)-6-(2-(piperidin-1-yl)ethoxy)-1H-imidazo[4,5-c]pyridin-2(3H)-ylidene)-4-fluorobenzamide] | 0.1 to 1 | 
8 | NC(=O)[C@]1(c2cccc(Br)c2)C[C@@H](n2/c(=N/C(=O)c3ccc(F)cc3)[nH]c3cnc(OCCN4CCCCC4)cc32)C1 [Example 251, (E)-N-(1-(trans-3-(3-Bromophenyl)-3-carbamoylcyclobutyl)-6-(2-(piperidin-1-yl)ethoxy)-1H-imidazo[4,5-c]pyridin-2(3H)-ylidene)-4-fluorobenzamide] | 0.05 to 0.1 | 
9 | NC(=O)[C@]1(c2cccc(Br)c2)C[C@H](n2/c(=N/C(=O)c3ccc(F)cc3)[nH]c3cnc(OCCN4CCCCC4)cc32)C1 [Example 252, (E)-N-(1-(cis-3-(3-Bromophenyl)-3-carbamoylcyclobutyl)-6-(2-(piperidin-1-yl)ethoxy)-1H-imidazo[4,5-c]pyridin-2(3H)-ylidene)-4-fluorobenzamide] | 1 to 5 | 
